This is an account of results in patent publication US20130303533A1, “AZOLOPYRIDINE AND AZOLOPYRIMIDINE COMPOUNDS AND METHODS OF USE THEREOF” (AMBIT BIOSCIENCES CORPORATION, priority 2010, published 2013).

SMILES strings stand for the structures.

For one experiment, the target named is T1, JAK3 (Homo sapiens, UniProt P52333).
T1 construct: made in house; host or cells: T7 phage display or HEK-293 cells (alternatives)
T1 sequence (P52333 1-1124): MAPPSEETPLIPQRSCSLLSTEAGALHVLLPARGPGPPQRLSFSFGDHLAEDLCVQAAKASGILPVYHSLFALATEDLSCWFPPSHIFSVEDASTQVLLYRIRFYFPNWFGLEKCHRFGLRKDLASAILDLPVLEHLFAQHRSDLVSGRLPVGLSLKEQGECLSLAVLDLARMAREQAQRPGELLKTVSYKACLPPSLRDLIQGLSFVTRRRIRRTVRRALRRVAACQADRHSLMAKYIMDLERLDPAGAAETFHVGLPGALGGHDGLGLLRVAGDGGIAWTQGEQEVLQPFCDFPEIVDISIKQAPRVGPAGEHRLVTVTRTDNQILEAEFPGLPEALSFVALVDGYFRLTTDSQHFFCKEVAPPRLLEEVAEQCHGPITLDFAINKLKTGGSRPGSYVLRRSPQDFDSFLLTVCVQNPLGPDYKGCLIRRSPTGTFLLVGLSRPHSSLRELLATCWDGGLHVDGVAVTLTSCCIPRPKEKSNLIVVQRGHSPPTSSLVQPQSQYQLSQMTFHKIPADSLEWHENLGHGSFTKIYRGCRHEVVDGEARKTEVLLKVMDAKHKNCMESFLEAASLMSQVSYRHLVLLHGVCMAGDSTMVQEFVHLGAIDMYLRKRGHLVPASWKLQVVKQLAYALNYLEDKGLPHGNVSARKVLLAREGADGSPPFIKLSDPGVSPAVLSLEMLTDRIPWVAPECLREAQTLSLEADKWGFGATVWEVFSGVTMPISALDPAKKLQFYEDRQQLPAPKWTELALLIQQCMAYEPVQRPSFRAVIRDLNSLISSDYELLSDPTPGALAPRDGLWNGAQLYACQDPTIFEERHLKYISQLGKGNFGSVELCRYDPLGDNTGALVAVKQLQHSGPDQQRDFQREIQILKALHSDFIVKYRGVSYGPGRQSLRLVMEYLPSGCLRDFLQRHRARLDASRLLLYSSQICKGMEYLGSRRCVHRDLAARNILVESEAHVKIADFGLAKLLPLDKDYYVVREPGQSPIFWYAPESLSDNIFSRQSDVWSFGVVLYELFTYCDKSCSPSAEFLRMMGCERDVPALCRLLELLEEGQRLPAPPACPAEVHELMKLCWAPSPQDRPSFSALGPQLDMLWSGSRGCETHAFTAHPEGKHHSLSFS
The experiment in a line: Competition binding assay to determine binding constants (Kd), JAK3. An excerpt: (§1) Competition Binding Assay to Determine Binding Constants (Kd) of the Compounds Against JAK Kinases
(§2) Competition binding assays used herein were developed, validated and performed as described in Fabian et al., Nature Biotechnology 2005, 23, 329-336. Kinases were produced as fusions to T7 phage (See, Fabian et al. or WO04/015142) or alternatively, the kinases were expressed in HEK-293 cells and subsequently tagged with DNA for PCR detection (See, WO08/005,310). For the binding assays, streptavidin-coated magnetic beads were treated with biotinylated affinity ligands for 30 min at rt to generate affinity resins. The liganded beads were blocked with excess biotin and washed with blocking buffer (SeaBlock (Pierce), 1% BSA, 0.05% Tween 20, 1 mM DTT) to remove unbound ligand and to reduce non-specific binding. Binding reactions were assembled by combining kinase, liganded affinity beads, and test compounds in 1× binding buffer (20% SeaBlock, 0.17×PBS, 0.05% Tween 20, 6 mM DTT). Test compounds were prepared as 100× stocks in DMSO and rapidly diluted into the aqueous environment. DMSO was added to control assays lacking a test compound. Primary screen interactions were performed in polypropylene 384-well plates in a final volume of 34 μL, while Kd determinations were performed in polystyrene 96-well plates in a final volume of 135 μL. The assay plates were incubated at room temperature with shaking for 1 hour, long enough for binding reactions to reach equilibrium, and the affinity beads were washed extensively with wash buffer (1×PBS, 0.05% Tween 20) to remove unbound protein. The beads were then resuspended in elution buffer (1×PBS, 0.05% Tween 20, 2 μM non-biotinylated affinity ligand) and incubated at room temperature with shaking for 30 min. The kinase concentration in the eluates was measured by quantitative PCR. Each kinase was tested individually against each compound. Kds were determined using eleven serial threefold dilutions. A selectivity score, which is a quantitative measure of selectivity of a compound against a panel of enzymes, may be calculated for a compound by dividing the number of enzymes for which a compound meets a set criteria, (for example, a binding constant of 100 nM or less), by the total number of enzymes tested.

The next experiment has as its target T2, JAK2 (Homo sapiens, UniProt O60674).
T2 construct: made in house; host or cells: T7 phage display or HEK-293 cells (alternatives)
The experiment in a line: Competition binding assay to determine binding constants (Kd), JAK2.
Text: as §1, §2

In experiment [1] the test system is GM-CSFR/JAK2/STAT5 pathway. The experiment in a line: CSTF-1 cell-based reporter assay. Particulars: Homo sapiens; csTF-1 cells, GM-CSF at 2 ng/mL, 4 hours, beta-lactamase reporter; read-out: Cell Assay: CS TF-1 reporter assay IC50. The protocol:
CSTF-1 Cell-Based Reporter Assay
CSTF-1 cells are derived from the human erythroleukemia cell line that is growth dependent on GM-CSF and has an intact GM-CSFR/JAK2/STAT5 pathway. The cell line contains stably integrated beta-lactamase reporter gene under the control of the […] (irf 1) response element recognized by the activated transcription factor STAT5. csTF-1 cells (Invitrogen K1219) were washed with assay media (97% OPTIMEM/0.5% dialyzed FBS/0.1 mM NEAA/1 mM Na pyr/P/S) and seeded in the same media at 5×10^5 cell/mL in T150 flask. After 16 hour incubation, cells were seeded at 2×10^5 cell/well in 50 μl volume, into Costar, clear bottom, 96-well assay plates. Serial dilutions of compounds were added to the plates with final DMSO concentration at 0.5% and GM-CSF at 2 ng/mL and the plates were then incubated at 30° C. and 5% CO2 for 4 hours. The plates were brought to room temperature before adding Substrate Mixture according to manufacturer's protocol (Invitrogen, Catalog #K1085). The assay plates containing the substrate mixture were incubated in the dark at room temperature for 2 hours. Blue and green fluorescence was measured with excitation at 409 nm and emission at 460 nm (for blue) and excitation at 409 nm and emission at 530 nm (for green) using Spectra Max Gemini EM.
In general terms: In a reporter assay the amount or activity of a reporter protein is the signal.

The target in a further experiment is T3, TYK2 (Homo sapiens, UniProt P29597).
T3 construct: made in house; host or cells: T7 phage display or HEK-293 cells (alternatives)
T3 sequence (P29597 whole entry): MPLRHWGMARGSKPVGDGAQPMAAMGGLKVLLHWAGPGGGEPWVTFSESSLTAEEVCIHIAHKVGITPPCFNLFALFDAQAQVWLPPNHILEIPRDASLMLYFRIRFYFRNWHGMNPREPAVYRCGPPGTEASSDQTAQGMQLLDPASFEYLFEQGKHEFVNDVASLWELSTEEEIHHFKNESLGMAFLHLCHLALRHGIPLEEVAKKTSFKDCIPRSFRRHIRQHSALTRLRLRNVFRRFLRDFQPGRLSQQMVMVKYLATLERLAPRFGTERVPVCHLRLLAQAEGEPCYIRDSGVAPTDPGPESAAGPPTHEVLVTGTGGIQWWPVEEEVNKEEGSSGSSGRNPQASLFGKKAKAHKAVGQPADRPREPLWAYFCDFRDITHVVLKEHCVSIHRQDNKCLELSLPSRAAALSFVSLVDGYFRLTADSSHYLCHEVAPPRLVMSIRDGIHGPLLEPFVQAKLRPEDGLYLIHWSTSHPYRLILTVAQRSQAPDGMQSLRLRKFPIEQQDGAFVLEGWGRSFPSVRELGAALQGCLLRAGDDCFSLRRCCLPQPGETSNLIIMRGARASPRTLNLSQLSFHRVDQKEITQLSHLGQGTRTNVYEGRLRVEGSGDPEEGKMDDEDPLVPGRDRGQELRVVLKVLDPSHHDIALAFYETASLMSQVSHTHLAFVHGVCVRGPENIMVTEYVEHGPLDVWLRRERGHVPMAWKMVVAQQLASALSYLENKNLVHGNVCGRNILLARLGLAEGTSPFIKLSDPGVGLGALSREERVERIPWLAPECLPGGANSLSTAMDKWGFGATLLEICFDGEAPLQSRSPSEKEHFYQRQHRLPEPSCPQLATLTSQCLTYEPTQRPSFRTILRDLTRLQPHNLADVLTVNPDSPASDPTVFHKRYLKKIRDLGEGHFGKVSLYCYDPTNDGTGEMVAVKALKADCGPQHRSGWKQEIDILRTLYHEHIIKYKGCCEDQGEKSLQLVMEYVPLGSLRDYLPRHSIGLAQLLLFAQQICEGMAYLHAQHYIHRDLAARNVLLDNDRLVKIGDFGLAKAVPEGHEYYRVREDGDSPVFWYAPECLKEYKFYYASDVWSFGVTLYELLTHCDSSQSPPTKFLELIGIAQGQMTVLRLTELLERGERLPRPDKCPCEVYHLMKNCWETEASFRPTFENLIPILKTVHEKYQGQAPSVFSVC
The experiment in a line: Competition binding assay to determine binding constants (Kd), TYK2.
Text: as §1, §2

As a reminder, the Kd is the equilibrium constant for the complex coming apart. Lower therefore signals tighter binding. A word on the IC50: it is the concentration at which inhibition is half-maximal.

T2 sequence (O60674 whole entry): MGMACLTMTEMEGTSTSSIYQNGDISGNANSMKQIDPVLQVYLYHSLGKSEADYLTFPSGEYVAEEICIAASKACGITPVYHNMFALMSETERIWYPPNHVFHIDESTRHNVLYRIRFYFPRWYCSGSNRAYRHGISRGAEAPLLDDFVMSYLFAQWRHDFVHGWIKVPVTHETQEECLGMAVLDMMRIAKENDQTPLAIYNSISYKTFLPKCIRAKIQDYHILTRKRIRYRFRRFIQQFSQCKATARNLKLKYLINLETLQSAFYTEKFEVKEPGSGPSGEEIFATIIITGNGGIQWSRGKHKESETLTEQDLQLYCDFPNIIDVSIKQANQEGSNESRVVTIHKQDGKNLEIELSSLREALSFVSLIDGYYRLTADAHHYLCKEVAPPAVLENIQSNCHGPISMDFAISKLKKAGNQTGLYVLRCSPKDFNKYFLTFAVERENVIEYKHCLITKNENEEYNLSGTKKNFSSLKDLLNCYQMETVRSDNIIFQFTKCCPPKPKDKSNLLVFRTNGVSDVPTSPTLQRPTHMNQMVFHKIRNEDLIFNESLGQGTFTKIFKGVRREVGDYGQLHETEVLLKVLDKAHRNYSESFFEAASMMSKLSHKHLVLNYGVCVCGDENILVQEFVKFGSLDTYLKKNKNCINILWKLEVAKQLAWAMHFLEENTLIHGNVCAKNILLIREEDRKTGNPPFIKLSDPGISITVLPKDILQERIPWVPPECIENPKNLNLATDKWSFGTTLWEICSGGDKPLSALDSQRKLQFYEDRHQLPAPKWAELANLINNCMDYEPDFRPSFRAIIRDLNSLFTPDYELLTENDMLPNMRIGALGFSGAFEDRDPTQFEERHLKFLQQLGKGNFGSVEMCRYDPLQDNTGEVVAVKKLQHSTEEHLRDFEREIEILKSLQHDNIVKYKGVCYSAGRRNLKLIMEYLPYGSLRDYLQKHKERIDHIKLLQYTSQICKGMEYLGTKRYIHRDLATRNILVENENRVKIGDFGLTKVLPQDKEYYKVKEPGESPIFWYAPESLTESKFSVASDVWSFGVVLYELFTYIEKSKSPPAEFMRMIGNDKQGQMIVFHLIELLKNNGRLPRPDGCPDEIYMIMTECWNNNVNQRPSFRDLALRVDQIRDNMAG

Regarding `[O-][S+](c1ccc(F)cc1)c1nc(Nc2cc[nH]n2)c2cc[nH]c2n1` (racemic) [Example 1, (R,S)-2-(4-fluorophenylsulfinyl)-N-(1H-pyrazol-3-yl)-7H-pyrrolo[2,3-d]pyrimidin-4-amine], the figures for the dissociation constant Kd at JAK3, at JAK2 and at TYK2 were 10 to 100 nM, no more than 1 nM and no more than 10 nM, respectively. For the same compound, the half-inhibitory concentration (IC50) in experiment [1] is no more than 100 nM.
`Cc1cc(Nc2nc([S+]([O-])c3ccc(F)cc3)nc3[nH]ccc23)n[nH]1` (racemic) [Example 2, (R,S)-2-(4-fluorophenylsulfinyl)-N-(5-methyl-1H-pyrazol-3-yl)-7H-pyrrolo[2,3-d]pyrimidin-4-amine]: the Kd on JAK3 was no more than 10 nM; at JAK2, no more than 1 nM; on TYK2, no more than 10 nM. The concentration for half-maximal inhibition (IC50) in experiment [1] was no more than 100 nM.
In the case of `Cn1ccc2c(Nc3cc[nH]n3)nc([S+]([O-])c3ccc(F)cc3)nc21` (racemic) [Example 5, (R,S)-2-(4-fluorophenylsulfinyl)-7-methyl-N-(1H-pyrazol-3-yl)-7H-pyrrolo[2,3-d]pyrimidin-4-amine], the figures for the equilibrium dissociation constant (Kd) at JAK3, on JAK2 and on TYK2 were 10 to 100 nM, no more than 1 nM and no more than 10 nM, respectively. Besides, in experiment [1], the half-inhibitory concentration (IC50) was no more than 100 nM.
As for `Cc1cc(Nc2nc(C(O)c3ccc(F)cc3)nc3nn(C)cc23)n[nH]1` (racemic) [Example 22, (R,S)-(4-fluorophenyl)(2-methyl-4-(5-methyl-1H-pyrazol-3-ylamino)-2H-pyrazolo[3,4-d]pyrimidin-6-yl)methanol], the equilibrium dissociation constant (Kd) at JAK3 is 10 to 100 nM; on JAK2, no more than 1 nM; at TYK2, no more than 10 nM. Further, in experiment [1], the 50% inhibitory concentration (IC50) was in the range of 100 to 500 nM.
On to `O=S(=O)(c1ccc(F)cc1)c1nc(Nc2cc[nH]n2)c2cc[nH]c2n1` [Example 3, 2-(4-fluorophenylsulfonyl)-N-(1H-pyrazol-3-yl)-7H-pyrrolo[2,3-d]pyrimidin-4-amine], for which the figures for the equilibrium dissociation constant (Kd) at JAK3, at JAK2 and on TYK2 were no more than 10 nM, no more than 1 nM and no more than 10 nM, respectively. Further, the IC50 in experiment [1] was no more than 100 nM.
Regarding `Cc1cc(Nc2nc(S(=O)(=O)c3ccc(F)cc3)nc3[nH]ccc23)n[nH]1` [Example 4, 2-(4-fluorophenylsulfonyl)-N-(5-methyl-1H-pyrazol-3-yl)-7H-pyrrolo[2,3-d]pyrimidin-4-amine], the Kd is no more than 10 nM at JAK3, no more than 1 nM on JAK2 and no more than 10 nM at TYK2. In experiment [1], the IC50 was no more than 100 nM.
Take `Cn1ccc2c(Nc3cc[nH]n3)nc(S(=O)(=O)c3ccc(F)cc3)nc21` [Example 6, 2-(4-fluorophenylsulfonyl)-7-methyl-N-(1H-pyrazol-3-yl)-7H-pyrrolo[2,3-d]pyrimidin-4-amine]: the results for the equilibrium dissociation constant (Kd) at JAK3, at JAK2 and on TYK2 were no more than 10 nM, no more than 1 nM and no more than 10 nM, respectively. Also, the IC50 in experiment [1] was no more than 100 nM.
Regarding `CCn1ccc2c(Nc3cc(C)[nH]n3)nc(S(=O)(=O)c3ccc(F)cc3)nc21` [Example 7, 7-ethyl-2-(4-fluorophenylsulfonyl)-N-(5-methyl-1H-pyrazol-3-yl)-7H-pyrrolo[2,3-d]pyrimidin-4-amine], the Kd at JAK3 was no more than 10 nM; on JAK2, no more than 1 nM; on TYK2, no more than 10 nM. Also, in experiment [1], the half-maximal inhibitory concentration (IC50) is no more than 100 nM.
Take `CCn1ccc2c(Nc3cc[nH]n3)nc(S(=O)(=O)c3ccc(F)cc3)nc21` [Example 8, 7-ethyl-2-(4-fluorophenylsulfonyl)-N-(1H-pyrazol-3-yl)-7H-pyrrolo[2,3-d]pyrimidin-4-amine]: the Kd at JAK3 was no more than 10 nM; at JAK2, no more than 1 nM; on TYK2 it was no more than 10 nM. In addition, the concentration for half-maximal inhibition (IC50) in experiment [1] was no more than 100 nM.
Regarding `Cc1cc(Nc2nc(S(=O)(=O)c3ccc(F)cc3)nc3c2ccn3C)n[nH]1` [Example 9, 2-(4-fluorophenylsulfonyl)-7-methyl-N-(5-methyl-1H-pyrazol-3-yl)-7H-pyrrolo[2,3-d]pyrimidin-4-amine], the figures for the dissociation constant (Kd) at JAK3, at JAK2 and at TYK2 were no more than 10 nM, no more than 1 nM and no more than 10 nM, respectively. In addition, in experiment [1], the 50% inhibitory concentration (IC50) is no more than 100 nM.
